Measured values: patent US9616019B2, “Nanosuspension of a poorly soluble drug via microfluidization process” (Celgene Corporation, priority 2009, dated 2017)

Assay: Particle size distribution by laser diffraction particle size analyzer
Format: physicochemical
Protocol: The particle size distribution of the resultant suspensions can be measured using any instrumentation. An example is laser diffraction using a Cilas Particle Size Analyser 1190. The images of the particles can be taken using, for example, the microscope “Olympus”. The resolution rates can be determined, for example, by a pION μDISS Profiler.
An aqueous dispersion of cyclopropyl-N-{2-[(1S)-1-(3-ethoxy-4-methoxyphenyl)-2-(methylsulfonyl)ethyl]-3-oxoisoindoline-4-yl}carboxamide up to 200 mg/ml in 0.5% HPMC E5 were able to be processed through the Microfluidizer processor. […] By processing at 27K psi for 100 passes, the mean particle size by volume was reduced from 8.0 μm to 0.39 μm, while by processing at 15K psi, the mean size was 0.91 μm. The D90 of particle size by number was 0.09 μm.
Nanosuspensions were formed by initially stirring the micronized cyclopropyl-N-{2-[(1S)-1-(3-ethoxy-4-methoxyphenyl)-2-(methylsulfonyl)ethyl]-3-oxoisoindoline-4-yl}carboxamide in aqueous excipient solutions including PVP, CMC, HPMC, PEG, PEO, Transcutol, glycerin, and/or various surfactants for wetting and solubilization, followed by passing through a high-shear microfluidizer processor. The particle size distribution of the resultant suspensions was measured by a laser diffraction particle size analyzer. The images of the particles were taken using a microscope.
Aqueous dispersions of cyclopropyl-N-{2-[(1S)-1-(3-ethoxy-4-methoxyphenyl)-2-(methylsulfonyl)ethyl]-3-oxoisoindoline-4-yl}carboxamide up to 200 mg/ml in polymeric excipients were processed with this approach. The 200 mg/mL nanosuspension was physically stable at room temperature for 2 months, based on the images and particle size analysis. The D90 of particle size by number was 0.09 μm. […] Upon dilution from 200 mg/ml to 25 mg/ml with specific surfactants, the solubility increased 40 fold over 40 minutes.

In the case of `CCOc1cc([C@@H](CS(C)(=O)=O)N2Cc3cccc(NC(=O)C4CC4)c3C2=O)ccc1OC` [cyclopropyl-N-{2-[(1S)-1-(3-ethoxy-4-methoxyphenyl)-2-(methylsulfonyl)ethyl]-3-oxoisoindoline-4-yl}carboxamide], the “D90 of particle size by number” value is reported as 0.09 μm, the “mean particle size by volume” value (before microfluidization) is reported as 8.0 μm and the mean particle size (optimal process pressure and time) is reported as 0.05 μm. The “mean particle size by volume” value (processing at 15K psi) was 0.91 μm, the mean particle size (processing at 15K psi (Example 4)) was 0.08 μm and the “mean particle size by volume” value (processing at 27K psi for 100 passes, 0.5% HPMC E5) was 0.39 μm. For the same compound, the mean particle size (processing at 27K psi for 130 passes) was 0.05 µm.
